Literature values as cited in patent US20220370378A1 (SOCIETE DES PRODUITS NESTLE S.A., priority 2019, published 2022).

Assays:
[1] = humans
[2] = system: GLUT4 translocation in skeletal muscle cells; conditions: single-dose administration, compared among three inositol isomers

SMILES: O[C@H]1[C@H](O)[C@@H](O)[C@H](O)[C@@H](O)[C@@H]1O [scyllo-inositol, (1r,2r,3r,4r,5r,6r)-Cyclohexane-1,2,3,4,5,6-hexol]
- mean time to reach the maximum level after ingestion [1]: about 3.8 h
- GLUT4 translocation [2]: most efficiently among three inositol isomers
